Source: ChEMBL document CHEMBL4765295, “Synthesis, pharmacological profile and 2D-QSAR studies of curcumin-amino acid conjugates as potential drug candidates” (Eur J Med Chem, 2020)

Test system: not listed separately
Test: Ulcerogenic activity in fasted albino mouse assessed as ulcer index in gastric mucosa at 10 mg/kg, po for 3 days (reference value: 0)
Type: toxicity, organism-based
Settings: in vivo, 72 h, time 3 day

For `COc1ccc2c(c1)c(CC(=O)O)c(C)n2C(=O)c1ccc(Cl)cc1` [INDOMETHACIN], the UI was 13.67.

Test system: Mus musculus
Test: Analgesic activity in albino mouse assessed as forepaw licking/jumping latency time at 10 mg/kg, ip measured after 90 mins by hot plate test (reference value: 2.72 +/- 0.01 sec)
Type: functional
Settings: 1.5 h

Compared with `CC(C)Cc1ccc(C(C)C(=O)O)cc1` (stereo not drawn) [IBUPROFEN], `COc1ccc2c(c1)c(CC(=O)O)c(C)n2C(=O)c1ccc(Cl)cc1` [INDOMETHACIN] is lower in Time: 4.12 s for the first, 3.84 s for the second.

Test system: Rattus norvegicus
Test: Anti-inflammatory activity in Wistar rat assessed as inhibition of carrageenan-induced paw edema at 10 mg/kg, ip pretreated for 1 hr followed by carrageenan challenge and measured after 1 hr relative to control (reference value: 0.00 +/-0.02 %)
Type: functional
Settings: time 2 hrs

Going from `CC(C)Cc1ccc(C(C)C(=O)O)cc1` (stereo not drawn) [IBUPROFEN] to `COc1ccc2c(c1)c(CC(=O)O)c(C)n2C(=O)c1ccc(Cl)cc1` [INDOMETHACIN], the inhibition in vivo at 10 mg/kg rises from 20% to 53%.

Test system: Rattus norvegicus
Test: Anti-inflammatory activity in Wistar rat assessed as inhibition of carrageenan-induced paw edema at 10 mg/kg, ip pretreated for 1 hr followed by carrageenan challenge and measured after 24 hr relative to control (reference value: 0.00 +/-0.3 %)
Type: functional
Settings: time 25 hrs

Compared with `CC(C)Cc1ccc(C(C)C(=O)O)cc1` (stereo not drawn) [IBUPROFEN], `COc1ccc2c(c1)c(CC(=O)O)c(C)n2C(=O)c1ccc(Cl)cc1` [INDOMETHACIN] is higher in inhibition in vivo at 10 mg/kg: 14% for the first, 86% for the second.

Test system: Mus musculus
Test: Analgesic activity in albino mouse assessed as forepaw licking/jumping latency time at 10 mg/kg, ip measured after 120 mins by hot plate test (reference value: 2.62 +/- 0.06 sec)
Type: functional
Settings: 2 h

Compared with `CC(C)Cc1ccc(C(C)C(=O)O)cc1` (stereo not drawn) [IBUPROFEN], `COc1ccc2c(c1)c(CC(=O)O)c(C)n2C(=O)c1ccc(Cl)cc1` [INDOMETHACIN] is higher in Time: 3.48 s for the first, 3.72 s for the second.

Test system: Mus musculus
Test: Analgesic activity in albino mouse assessed as protection at 10 mg/kg, ip measured after 90 mins by hot plate test (reference value: 0 %)
Type: functional
Settings: 1.5 h

First: CC(C)Cc1ccc(C(C)C(=O)O)cc1 (stereo not drawn) [IBUPROFEN]
Second: COc1ccc2c(c1)c(CC(=O)O)c(C)n2C(=O)c1ccc(Cl)cc1 [INDOMETHACIN]
The Activity of the first is higher: 51.5% for the first, 41.2% for the second.

Test system: Rattus norvegicus
Test: Antiinflammatory activity in Wistar rat model of carrageenan-induced paw edema assessed as reduction in thickness of paw edema at 10 mg/kg, ip pretreated for 1 hr followed by carrageenan challenge and measured after 3 hrs (reference value: 1.79 +/-0.07 mm)
Type: functional
Settings: time 4 hrs

First: CC(C)Cc1ccc(C(C)C(=O)O)cc1 (stereo not drawn) [IBUPROFEN]
Second: COc1ccc2c(c1)c(CC(=O)O)c(C)n2C(=O)c1ccc(Cl)cc1 [INDOMETHACIN]
The Activity of the first is higher: 0.63 mm for the first, 0.59 mm for the second.

Test system: Mus musculus
Test: Analgesic activity in albino mouse assessed as forepaw licking/jumping latency time at 10 mg/kg, ip measured after 60 mins by hot plate test (reference value: 3.42 +/- 0.03 sec)
Type: functional
Settings: 1 h

Going from `CC(C)Cc1ccc(C(C)C(=O)O)cc1` (stereo not drawn) [IBUPROFEN] to `COc1ccc2c(c1)c(CC(=O)O)c(C)n2C(=O)c1ccc(Cl)cc1` [INDOMETHACIN], the Time rises from 5.12 s to 5.26 s.

Test system: Mus musculus
Test: Analgesic activity in albino mouse assessed as protection at 10 mg/kg, ip measured after 120 mins by hot plate test (reference value: 0 %)
Type: functional
Settings: 2 h

Compared with `CC(C)Cc1ccc(C(C)C(=O)O)cc1` (stereo not drawn) [IBUPROFEN], `COc1ccc2c(c1)c(CC(=O)O)c(C)n2C(=O)c1ccc(Cl)cc1` [INDOMETHACIN] is higher in Activity: 32.8% for the first, 42% for the second.

Test system: Rattus norvegicus
Test: Anti-inflammatory activity in Wistar rat assessed as inhibition of carrageenan-induced paw edema at 10 mg/kg, ip pretreated for 1 hr followed by carrageenan challenge and measured after 4 hr relative to indomethacin
Type: functional
Settings: time 5 hrs

Compared with `CC(C)Cc1ccc(C(C)C(=O)O)cc1` (stereo not drawn) [IBUPROFEN], `COc1ccc2c(c1)c(CC(=O)O)c(C)n2C(=O)c1ccc(Cl)cc1` [INDOMETHACIN] is higher in inhibition in vivo at 10 mg/kg: 91% for the first, 100% for the second.

Test system: not listed separately
Test: Ulcerogenic activity in fasted albino mouse assessed as incidence of gastric ulceration at 10 mg/kg, po for 3 days (reference value: 0 %)
Type: toxicity, organism-based
Settings: in vivo, 72 h, time 3 day

Compared with `CC(C)Cc1ccc(C(C)C(=O)O)cc1` (stereo not drawn) [IBUPROFEN], `COc1ccc2c(c1)c(CC(=O)O)c(C)n2C(=O)c1ccc(Cl)cc1` [INDOMETHACIN] is higher in Activity: 3.33% for the first, 10% for the second.

Test system: Mus musculus
Test: Analgesic activity in albino mouse assessed as protection at 10 mg/kg, ip measured after 60 mins by hot plate test (reference value: 0 %)
Type: functional
Settings: 1 h

Going from `CC(C)Cc1ccc(C(C)C(=O)O)cc1` (stereo not drawn) [IBUPROFEN] to `COc1ccc2c(c1)c(CC(=O)O)c(C)n2C(=O)c1ccc(Cl)cc1` [INDOMETHACIN], the Activity rises from 49.7% to 53.8%.

Test system: not listed separately
Test: Ulcerogenic activity in fasted albino mouse assessed as average number of ulcers in gastric mucosa at 10 mg/kg, po for 3 days (reference value: 0)
Type: toxicity, organism-based
Settings: in vivo, 72 h, time 3 day

First: CC(C)Cc1ccc(C(C)C(=O)O)cc1 (stereo not drawn) [IBUPROFEN]
Second: COc1ccc2c(c1)c(CC(=O)O)c(C)n2C(=O)c1ccc(Cl)cc1 [INDOMETHACIN]
The Activity of the first is lower: 0.33 for the first, 2 for the second.

Test system: Rattus norvegicus
Test: Anti-inflammatory activity in Wistar rat assessed as inhibition of carrageenan-induced paw edema at 10 mg/kg, ip pretreated for 1 hr followed by carrageenan challenge and measured after 2 hr relative to control (reference value: 0.00 +/-0.03 %)
Type: functional
Settings: time 3 hrs

Compared with `CC(C)Cc1ccc(C(C)C(=O)O)cc1` (stereo not drawn) [IBUPROFEN], `COc1ccc2c(c1)c(CC(=O)O)c(C)n2C(=O)c1ccc(Cl)cc1` [INDOMETHACIN] is lower in inhibition in vivo at 10 mg/kg: 60% for the first, 59% for the second.

Test system: Mus musculus
Test: Analgesic activity in albino mouse assessed reduction in acetic acid-induced abdominal writhing by measuring writing reflex at 10 mg/kg, ip pretreated for 1 hr followed by acetic acid challenge and measured starting 5 mins post acetic acid challenge for 10 mins (reference value: 42.4 +/- 1.02)
Type: functional
Settings: time 75 min, 1.25 h

Going from `CC(C)Cc1ccc(C(C)C(=O)O)cc1` (stereo not drawn) [IBUPROFEN] to `COc1ccc2c(c1)c(CC(=O)O)c(C)n2C(=O)c1ccc(Cl)cc1` [INDOMETHACIN], the Activity falls from 24.2 to 16.3.

Test system: Rattus norvegicus
Test: Anti-inflammatory activity in Wistar rat assessed as inhibition of carrageenan-induced paw edema at 10 mg/kg, ip pretreated for 1 hr followed by carrageenan challenge and measured after 3 hr relative to control (reference value: 0.00 +/-0.1 %)
Type: functional
Settings: time 4 hrs

Going from `CC(C)Cc1ccc(C(C)C(=O)O)cc1` (stereo not drawn) [IBUPROFEN] to `COc1ccc2c(c1)c(CC(=O)O)c(C)n2C(=O)c1ccc(Cl)cc1` [INDOMETHACIN], the inhibition in vivo at 10 mg/kg rises from 65% to 67%.

Test system: Mus musculus
Test: Analgesic activity in albino mouse assessed protection against acetic acid-induced abdominal writhing at 10 mg/kg, ip pretreated for 1 hr followed by acetic acid challenge and measured starting 5 mins post acetic acid challenge for 10 mins relative to control (reference value: 0 %)
Type: functional
Settings: time 75 min, 1.25 h

Going from `CC(C)Cc1ccc(C(C)C(=O)O)cc1` (stereo not drawn) [IBUPROFEN] to `COc1ccc2c(c1)c(CC(=O)O)c(C)n2C(=O)c1ccc(Cl)cc1` [INDOMETHACIN], the Activity rises from 42.9% to 61.6%.

Test system: Rattus norvegicus
Test: Antiinflammatory activity in Wistar rat model of carrageenan-induced paw edema assessed as reduction in thickness of paw edema at 10 mg/kg, ip pretreated for 1 hr followed by carrageenan challenge and measured after 4 hrs (reference value: 1.40 +/-0.10 mm)
Type: functional
Settings: time 5 hrs

Going from `CC(C)Cc1ccc(C(C)C(=O)O)cc1` (stereo not drawn) [IBUPROFEN] to `COc1ccc2c(c1)c(CC(=O)O)c(C)n2C(=O)c1ccc(Cl)cc1` [INDOMETHACIN], the Activity falls from 0.29 mm to 0.18 mm.

Test system: Rattus norvegicus
Test: Antiinflammatory activity in Wistar rat model of carrageenan-induced paw edema assessed as reduction in thickness of paw edema at 10 mg/kg, ip pretreated for 1 hr followed by carrageenan challenge and measured after 1 hr (reference value: 2.41 +/-0.05 mm)
Type: functional
Settings: time 1 hr after carrageenan

Compared with `CC(C)Cc1ccc(C(C)C(=O)O)cc1` (stereo not drawn) [IBUPROFEN], `COc1ccc2c(c1)c(CC(=O)O)c(C)n2C(=O)c1ccc(Cl)cc1` [INDOMETHACIN] is lower in Activity: 1.93 mm for the first, 1.11 mm for the second.

Test system: Mus musculus
Test: Analgesic activity in albino mouse assessed as protection at 10 mg/kg, ip measured after 120 mins by hot plate test relative to indomethacin
Type: functional
Settings: 2 h

First: CC(C)Cc1ccc(C(C)C(=O)O)cc1 (stereo not drawn) [IBUPROFEN]
Second: COc1ccc2c(c1)c(CC(=O)O)c(C)n2C(=O)c1ccc(Cl)cc1 [INDOMETHACIN]
The Activity of the first is lower: 78.1% for the first, 100% for the second.

Test system: not listed separately
Test: Ulcerogenic activity in fasted albino mouse assessed as average severity of ulcers in gastric mucosa at 10 mg/kg, po for 3 days (reference value: 0)
Type: toxicity, organism-based
Settings: in vivo, 72 h, time 3 day

First: CC(C)Cc1ccc(C(C)C(=O)O)cc1 (stereo not drawn) [IBUPROFEN]
Second: COc1ccc2c(c1)c(CC(=O)O)c(C)n2C(=O)c1ccc(Cl)cc1 [INDOMETHACIN]
The Activity of the first is lower: 0.67 for the first, 1.67 for the second.

Test system: Rattus norvegicus
Test: Anti-inflammatory activity in Wistar rat assessed as inhibition of carrageenan-induced paw edema at 10 mg/kg, ip pretreated for 1 hr followed by carrageenan challenge and measured after 4 hr relative to control (reference value: 0.00 +/-0.4 %)
Type: functional
Settings: time 5 hrs

Going from `CC(C)Cc1ccc(C(C)C(=O)O)cc1` (stereo not drawn) [IBUPROFEN] to `COc1ccc2c(c1)c(CC(=O)O)c(C)n2C(=O)c1ccc(Cl)cc1` [INDOMETHACIN], the inhibition in vivo at 10 mg/kg rises from 79% to 87%.

Test system: Rattus norvegicus
Test: Antiinflammatory activity in Wistar rat model of carrageenan-induced paw edema assessed as reduction in thickness of paw edema at 10 mg/kg, ip pretreated for 1 hr followed by carrageenan challenge and measured after 2 hrs (reference value: 2.06 +/-0.09 mm)
Type: functional
Settings: time 3 hrs

Going from `CC(C)Cc1ccc(C(C)C(=O)O)cc1` (stereo not drawn) [IBUPROFEN] to `COc1ccc2c(c1)c(CC(=O)O)c(C)n2C(=O)c1ccc(Cl)cc1` [INDOMETHACIN], the Activity rises from 0.82 mm to 0.85 mm.

Test system: Mus musculus
Test: Analgesic activity in albino mouse assessed protection against acetic acid-induced abdominal writhing at 10 mg/kg, ip pretreated for 1 hr followed by acetic acid challenge and measured starting 5 mins post acetic acid challenge for 10 mins relative to indomethacin
Type: functional
Settings: time 75 min, 1.25 h

First: CC(C)Cc1ccc(C(C)C(=O)O)cc1 (stereo not drawn) [IBUPROFEN]
Second: COc1ccc2c(c1)c(CC(=O)O)c(C)n2C(=O)c1ccc(Cl)cc1 [INDOMETHACIN]
The Activity of the first is lower: 69.6% for the first, 100% for the second.

Test system: Mus musculus
Test: Analgesic activity in albino mouse assessed as forepaw licking/jumping latency time at 10 mg/kg, ip measured after 30 mins by hot plate test (reference value: 5.02 +/- 0.09 sec)
Type: functional
Settings: 0.5 h

Going from `CC(C)Cc1ccc(C(C)C(=O)O)cc1` (stereo not drawn) [IBUPROFEN] to `COc1ccc2c(c1)c(CC(=O)O)c(C)n2C(=O)c1ccc(Cl)cc1` [INDOMETHACIN], the Time rises from 5.4 s to 6.3 s.

Test system: Rattus norvegicus
Test: Antiinflammatory activity in Wistar rat model of carrageenan-induced paw edema assessed as reduction in thickness of paw edema at 10 mg/kg, ip pretreated for 1 hr followed by carrageenan challenge and measured after 24 hrs (reference value: 0.83 +/-0.08 mm)
Type: functional
Settings: time 25 hrs

First: CC(C)Cc1ccc(C(C)C(=O)O)cc1 (stereo not drawn) [IBUPROFEN]
Second: COc1ccc2c(c1)c(CC(=O)O)c(C)n2C(=O)c1ccc(Cl)cc1 [INDOMETHACIN]
The Activity of the first is higher: 0.71 mm for the first, 0.12 mm for the second.

Test system: Mus musculus
Test: Analgesic activity in albino mouse assessed as protection at 10 mg/kg, ip measured after 30 mins by hot plate test (reference value: 0 %)
Type: functional
Settings: 0.5 h

Going from `CC(C)Cc1ccc(C(C)C(=O)O)cc1` (stereo not drawn) [IBUPROFEN] to `COc1ccc2c(c1)c(CC(=O)O)c(C)n2C(=O)c1ccc(Cl)cc1` [INDOMETHACIN], the Activity rises from 7.6% to 25.5%.
